Results published in patent US20150366847A1, “COMBINATION OF GERANYLGERANYLACETONE AND IBUDILAST AND METHODS OF USING SAME” (MediciNova, Inc., priority 2014, published 2015).

Key:
[1] = tested on: heat shock protein 70 (HSP70); conditions: mice subjected to an occlusion of the middle cerebral artery; cited from earlier work
animal model for ALS = assay: Rat model of ALS, brain mass; format: in vivo
[2] = tested on: animal model for Parkinson's disease; assay: Rat model of Parkinson's disease, brain mass; format: in vivo

Structure (SMILES) | induction of heat shock protein 70 (HSP70) [1] | brain mass (animal model for ALS) | brain mass [2]
CC(=O)CCC=C(C)CC/C=C(\C)CC/C=C(\C)CCC=C(C)C (mixture of isomers) [GGA, Geranylgeranyl acetone] | inducer of heat shock protein 70 (HSP70) | – | –
CC(C)C(=O)c1c(C(C)C)nn2ccccc12 [ibudilast, 3-isobutyryl-2-isopropylpyrazolo[1,5-a]pyridine] | – | increase brain mass | increase brain mass
